Measurements reported in patent US10765741B2, “Methods for treating VEGF-expressing cancer using preformed nanoparticle complexes comprising albumin-bound paclitaxel and bevacizumab” (Mayo Foundation for Medical Education and Research, priority 2011, dated 2020).

Experiments:
[1] = Bevacizumab incubated with free paclitaxel, Western blot with anti-paclitaxel antibody; format: binding; details: 4 mg bevacizumab, paclitaxel 0.1-2 mg, 30 minutes room temperature
Description: The following was performed to determine if bevacizumab binds free paclitaxel. 4 mg of bevacizumab was incubated with paclitaxel (0.1, 0.5, 1, or 2 mg) for 30 minutes at room temperature.

[2] = Complex formation of labeled antibodies with labeled Abraxane nanoparticles, flow cytometry; format: binding; details: fluorescently labeled antibody and nanoparticles
Description: Three therapeutic monoclonal antibodies (bevacizumab, trastuzamab, and rituxan) were fluorescently labeled and incubated with fluorescently labeled Abraxane® nanoparticles. The particles were spun down, washed, and visualized by flow cytometry.

| Substance | binding of free paclitaxel [1] | complex formation with Abraxane nanoparticles [2] |
| --- | --- | --- |
| bevacizumab: Humanized monoclonal antibody that binds to vascular endothelial growth factor A | did not bind | spontaneously formed complexes |
| rituxan: Therapeutic monoclonal antibody | – | spontaneously formed complexes |
